Source: patent publication US12662479B2 (Foghorn Therapeutics Inc., priority 2020, dated 2026)

Experiments:
HiBit-BRM fusion protein = molecular target: T1, HiBit-BRM fusion protein (Homo sapiens, UniProt P51531); test: HiBiT-BRM cell-based degradation assay (Nano-Glo HiBiT Lytic Detection, 24 h); details: HeLa cells expressing HiBiT-BRM; for DC50: read-out: BRM HiBit Degradation IC50; for BRM HiBit Degradation Maximum measured: top dose 30 μM
T1 construct: expressed in transfected cells
Method in brief: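 HeLa cells stably expressing HiBiT-BRM were dosed with compounds (10-point 3-fold dilutions, 30 μM final top dose, duplicate) for 24 h. HiBiT signal was read by lytic LgBiT complementation luminescence. Percent degradation was normalised to DMSO (high control) and 2 μM of a reference BRM/BRG1 degrader (low control).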

[1] = molecular target: T2, HiBit-BRG1 fusion protein (Homo sapiens, UniProt P51532); test: HiBiT-BRG1 cell-based degradation assay (Nano-Glo HiBiT Lytic Detection, 24 h); details: HeLa cells expressing HiBit-BRG1 and LgBit; for DC50: read-out: BRG1 HiBit Degradation IC50; for Dmax: HeLa, top dose 30 μM, read-out: BRG1 HiBit Degradation Maximum measured
T2 construct: expressed in transfected cells
T2 sequence (P51532 whole entry, the tested form may be a part): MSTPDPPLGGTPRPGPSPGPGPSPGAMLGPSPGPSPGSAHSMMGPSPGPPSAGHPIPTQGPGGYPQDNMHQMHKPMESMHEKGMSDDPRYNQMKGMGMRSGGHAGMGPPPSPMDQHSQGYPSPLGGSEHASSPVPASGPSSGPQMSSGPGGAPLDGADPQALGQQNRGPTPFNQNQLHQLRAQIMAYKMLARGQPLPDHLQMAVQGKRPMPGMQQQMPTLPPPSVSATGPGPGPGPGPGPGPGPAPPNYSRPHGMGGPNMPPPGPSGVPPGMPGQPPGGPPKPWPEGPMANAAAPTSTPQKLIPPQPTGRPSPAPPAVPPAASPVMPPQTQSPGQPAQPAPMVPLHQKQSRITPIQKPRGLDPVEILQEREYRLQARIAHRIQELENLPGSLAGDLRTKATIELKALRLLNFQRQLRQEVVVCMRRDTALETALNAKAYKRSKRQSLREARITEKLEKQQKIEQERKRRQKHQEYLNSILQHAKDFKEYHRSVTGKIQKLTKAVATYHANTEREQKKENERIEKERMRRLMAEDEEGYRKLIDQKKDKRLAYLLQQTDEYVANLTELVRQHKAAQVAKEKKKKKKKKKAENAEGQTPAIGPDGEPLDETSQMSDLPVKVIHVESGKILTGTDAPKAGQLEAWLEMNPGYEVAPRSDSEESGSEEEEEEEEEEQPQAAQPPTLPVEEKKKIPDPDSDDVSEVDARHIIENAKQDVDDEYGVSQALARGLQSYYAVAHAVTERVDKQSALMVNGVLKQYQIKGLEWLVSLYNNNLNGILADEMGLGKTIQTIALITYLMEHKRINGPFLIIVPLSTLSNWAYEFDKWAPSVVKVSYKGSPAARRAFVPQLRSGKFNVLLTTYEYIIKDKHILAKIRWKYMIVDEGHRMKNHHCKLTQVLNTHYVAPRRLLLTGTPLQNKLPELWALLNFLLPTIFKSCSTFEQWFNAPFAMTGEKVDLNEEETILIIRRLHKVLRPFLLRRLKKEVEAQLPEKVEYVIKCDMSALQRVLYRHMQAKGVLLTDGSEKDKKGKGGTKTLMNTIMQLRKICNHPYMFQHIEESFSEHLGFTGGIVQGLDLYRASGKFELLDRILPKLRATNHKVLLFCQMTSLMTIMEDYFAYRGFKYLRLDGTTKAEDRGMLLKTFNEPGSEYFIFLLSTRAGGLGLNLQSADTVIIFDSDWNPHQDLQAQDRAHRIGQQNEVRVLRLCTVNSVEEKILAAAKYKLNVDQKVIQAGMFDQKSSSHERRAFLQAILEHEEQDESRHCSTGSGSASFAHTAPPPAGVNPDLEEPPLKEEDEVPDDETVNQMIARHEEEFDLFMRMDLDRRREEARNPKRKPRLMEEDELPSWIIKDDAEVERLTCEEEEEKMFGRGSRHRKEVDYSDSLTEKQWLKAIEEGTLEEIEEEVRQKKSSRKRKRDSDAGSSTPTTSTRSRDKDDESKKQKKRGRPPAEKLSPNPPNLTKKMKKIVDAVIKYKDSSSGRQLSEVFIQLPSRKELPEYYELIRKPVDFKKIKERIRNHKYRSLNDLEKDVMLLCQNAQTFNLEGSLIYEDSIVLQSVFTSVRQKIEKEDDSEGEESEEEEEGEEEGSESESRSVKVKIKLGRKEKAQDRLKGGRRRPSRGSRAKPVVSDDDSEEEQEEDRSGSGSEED
Method in brief: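 Stable HeLa line expressing HiBiT-BRG1 and LgBiT, seeded at 5000 cells/well; luminescence read after lytic Nano-Glo HiBiT reagent and 10 min shaking at RT. % degradation normalised between DMSO (high control) and 2 μM reference BRM/BRG1 degrader (low control).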

T1 sequence (P51531 whole entry, the tested form may be a part): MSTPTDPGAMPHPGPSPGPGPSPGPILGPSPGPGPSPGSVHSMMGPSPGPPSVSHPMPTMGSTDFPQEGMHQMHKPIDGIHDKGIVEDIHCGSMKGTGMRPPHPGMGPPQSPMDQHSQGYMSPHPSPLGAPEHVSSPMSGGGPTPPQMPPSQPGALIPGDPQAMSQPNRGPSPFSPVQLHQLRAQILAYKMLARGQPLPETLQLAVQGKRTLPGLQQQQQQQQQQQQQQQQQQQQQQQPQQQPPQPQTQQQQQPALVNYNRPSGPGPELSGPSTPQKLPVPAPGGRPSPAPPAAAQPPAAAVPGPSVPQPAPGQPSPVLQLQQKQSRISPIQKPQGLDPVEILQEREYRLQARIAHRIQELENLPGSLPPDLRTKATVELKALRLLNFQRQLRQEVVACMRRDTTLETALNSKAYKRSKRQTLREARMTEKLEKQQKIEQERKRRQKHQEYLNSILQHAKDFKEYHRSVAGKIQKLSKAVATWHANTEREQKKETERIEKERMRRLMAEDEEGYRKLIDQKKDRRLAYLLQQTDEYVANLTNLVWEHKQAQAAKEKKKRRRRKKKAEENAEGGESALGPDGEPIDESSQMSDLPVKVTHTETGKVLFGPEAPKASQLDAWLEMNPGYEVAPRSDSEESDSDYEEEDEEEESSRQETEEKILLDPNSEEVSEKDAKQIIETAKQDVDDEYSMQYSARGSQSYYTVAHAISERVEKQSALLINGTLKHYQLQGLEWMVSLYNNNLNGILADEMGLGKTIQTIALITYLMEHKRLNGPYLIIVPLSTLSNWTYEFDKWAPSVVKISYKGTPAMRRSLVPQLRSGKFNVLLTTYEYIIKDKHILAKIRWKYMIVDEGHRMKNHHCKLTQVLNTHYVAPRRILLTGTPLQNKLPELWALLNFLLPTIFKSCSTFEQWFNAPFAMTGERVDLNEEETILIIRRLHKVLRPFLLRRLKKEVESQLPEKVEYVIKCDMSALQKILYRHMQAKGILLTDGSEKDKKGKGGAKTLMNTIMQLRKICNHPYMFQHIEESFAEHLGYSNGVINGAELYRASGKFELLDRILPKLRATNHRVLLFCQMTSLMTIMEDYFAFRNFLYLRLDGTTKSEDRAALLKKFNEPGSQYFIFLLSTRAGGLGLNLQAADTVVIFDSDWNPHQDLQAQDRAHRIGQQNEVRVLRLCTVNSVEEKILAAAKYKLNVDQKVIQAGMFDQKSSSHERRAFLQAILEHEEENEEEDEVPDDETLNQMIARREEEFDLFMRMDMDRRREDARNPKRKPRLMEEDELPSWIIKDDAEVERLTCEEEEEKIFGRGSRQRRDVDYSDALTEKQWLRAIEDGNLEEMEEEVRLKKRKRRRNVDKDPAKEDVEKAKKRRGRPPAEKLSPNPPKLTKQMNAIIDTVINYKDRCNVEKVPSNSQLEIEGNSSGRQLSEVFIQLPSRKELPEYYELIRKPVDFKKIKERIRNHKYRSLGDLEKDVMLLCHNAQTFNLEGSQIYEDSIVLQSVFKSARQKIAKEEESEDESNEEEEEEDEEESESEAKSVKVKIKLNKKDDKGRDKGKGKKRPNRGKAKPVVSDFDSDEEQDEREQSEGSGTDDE

DC50 (HiBit-BRM fusion protein) [µM] | BRM HiBit Degradation Maximum measured (HiBit-BRM fusion protein) | DC50 [1] [µM] | Dmax [1] [%] | SMILES
> 10 | C (‘C’ = Maximum degradation <50%) | > 10 | < 50 | Cc1ncsc1-c1ccc(CNC(=O)[C@@H]2C[C@@H](O)CN2C(=O)[C@@H](NC(=O)CCCC(=O)NCCOc2cc(-c3cccc(-c4csc(NC(=O)CNC(=O)c5ccn(S(C)(=O)=O)c5)n4)c3)ccn2)C(C)(C)C)cc1 [Compound 77, N1-((S)-1-((2S,4R)-4-hydroxy-2-((4-(4-methylthiazol-5-yl)benzyl)carbamoyl)pyrrolidin-1-yl)-3,3-dimethyl-1-oxobutan-2-yl)-N5-(2-((4-(3-(2-(2-(1-(methylsulfonyl)-1H-pyrrole-3-carboxamido)acetamido)thiazol-4-yl)phenyl)pyridin-2-yl)oxy)ethyl)glutaramide]
> 10 | C (‘C’ = Maximum degradation <50%) | > 10 | < 50 | Cc1ncsc1-c1ccc(CNC(=O)[C@@H]2C[C@@H](O)CN2C(=O)[C@@H](NC(=O)COCC(=O)NCCOc2cc(-c3cccc(-c4csc(NC(=O)CNC(=O)c5ccn(S(C)(=O)=O)c5)n4)c3)ccn2)C(C)(C)C)cc1 [Compound 78, N-[2-[[4-[3-[2-[2-[[2-[2-[[(1S)-1-[(2S,4R)-4-hydroxy-2-[[4-(4-methylthiazol-5-yl)phenyl]methylcarbamoyl]pyrrolidine-1-carbonyl]-2,2-dimethyl-propyl]amino]-2-oxo-ethoxy]acetyl]amino]ethoxy]-4-pyridyl]phenyl]thiazol-2-yl]amino]-2-oxo-ethyl]-1-methylsulfonyl-pyrrole-3-carboxamide]
> 10 | C (‘C’ = Maximum degradation <50%) | > 10 | < 50 | Cc1ncsc1-c1ccc(CNC(=O)[C@@H]2C[C@@H](O)CN2C(=O)[C@@H](NC(=O)CCCC(=O)N2CCN(c3cc(-c4cccc(-c5csc(NC(=O)CNC(=O)c6ccn(S(C)(=O)=O)c6)n5)c4)ccn3)CC2)C(C)(C)C)cc1 [Compound 79, N-(2-((4-(3-(2-(4-(5-(((S)-1-((2S,4R)-4-hydroxy-2-((4-(4-methylthiazol-5-yl)benzyl)carbamoyl)pyrrolidin-1-yl)-3,3-dimethyl-1-oxobutan-2-yl)amino)-5-oxopentanoyl)piperazin-1-yl)pyridin-4-yl)phenyl)thiazol-2-yl)amino)-2-oxoethyl)-1-(methylsulfonyl)-1H-pyrrole-3-carboxamide]
> 10 | C (‘C’ = Maximum degradation <50%) | > 10 | < 50 | CS(=O)(=O)n1ccc(C(=O)NCC(=O)Nc2nc(-c3cccc(-c4ccnc(OCCNC(=O)C5CC5CNC(=O)COc5ccc6c(c5)C(=O)N(C5CCC(=O)NC5=O)C6=O)c4)c3)cs2)c1 (centres unmarked) [Compound 80, N-[2-[[4-[3-[2-[2-[[2-[[[2-[2-(2,6-dioxo-3-piperidyl)-1,3-dioxoisoindolin-5-yl]oxyacetyl]amino]methyl]cyclopropanecarbonyl]amino]ethoxy]-4-pyridyl]phenyl]thiazol-2-yl]amino]-2-oxoethyl]-1-methylsulfonyl-pyrrole-3-carboxamide]
> 10 | C (‘C’ = Maximum degradation <50%) | 0.1 to 1 | 50 to 75 | CS(=O)(=O)n1ccc(C(=O)NCC(=O)Nc2nc(-c3cccc(-c4ccnc(OCCNC(=O)CCOCCOCCNc5cccc6c5C(=O)N(C5CCC(=O)NC5=O)C6=O)c4)c3)cs2)c1 (centres unmarked) [Compound 81, N-[2-[[4-[3-[2-[2-[3-[2-[2-[[2-(2,6-dioxo-3-piperidyl)-1,3-dioxoisoindolin-4-yl]amino]ethoxy]ethoxy]propanoylamino]ethoxy]-4-pyridyl]phenyl]thiazol-2-yl]amino]-2-oxo-ethyl]-1-methylsulfonyl-pyrrole-3-carboxamide]
> 10 | C (‘C’ = Maximum degradation <50%) | > 10 | < 50 | CS(=O)(=O)n1ccc(C(=O)NCC(=O)Nc2nc(-c3cccc(-c4ccnc(OCCNC(=O)CCCCCCCCCCNc5cccc6c5C(=O)N(C5CCC(=O)NC5=O)C6=O)c4)c3)cs2)c1 (centres unmarked) [Compound 82, N-[2-[[4-[3-[2-[2-[11-[[2-(2,6-dioxo-3-piperidyl)-1,3-dioxo-isoindolin-4-yl]amino]undecanoylamino]ethoxy]-4-pyridyl]phenyl]thiazol-2-yl]amino]-2-oxo-ethyl]-1-methylsulfonylpyrrole-3-carboxamide]
> 10 | C (‘C’ = Maximum degradation <50%) | > 10 | < 50 | CS(=O)(=O)n1ccc(C(=O)NCC(=O)Nc2nc(-c3cccc(-c4ccnc(OCCNC(=O)CCOCCOCCNc5ccc6c(c5)C(=O)N(C5CCC(=O)NC5=O)C6=O)c4)c3)cs2)c1 (centres unmarked) [Compound 83, N-[2-[[4-[3-[2-[2-[3-[2-[2-[[2-(2,6-dioxo-3-piperidyl)-1,3-dioxoisoindolin-5-yl]amino]ethoxy]ethoxy]propanoylamino]ethoxy]-4-pyridyl]phenyl]thiazol-2-yl]amino]-2-oxo-ethyl]-1-methylsulfonyl-pyrrole-3-carboxamide]
> 10 | C (‘C’ = Maximum degradation <50%) | > 10 | < 50 | CN(CCOCCOCCNc1cccc2c1C(=O)N(C1CCC(=O)NC1=O)C2=O)C(=O)CN(C)c1cc(-c2cccc(-c3csc(NC(=O)CNC(=O)c4ccn(S(C)(=O)=O)c4)n3)c2)ccn1 (centres unmarked) [Compound 84]
0.1 to 1 | A (‘A’ = Maximum degradation >75%) | 0.1 to 1 | > 75 | Cc1ncsc1-c1ccc(CNC(=O)[C@@H]2C[C@@H](O)CN2C(=O)[C@@H](NC(=O)CCCCCC(=O)NCCOc2cc(-c3cccc(-c4csc(NC(=O)CNC(=O)c5ccn(S(C)(=O)=O)c5)n4)c3)ccn2)C(C)(C)C)cc1 [Compound 85, N1-((S)-1-((2S,4R)-4-hydroxy-2-((4-(4-methylthiazol-5-yl)benzyl)carbamoyl)pyrrolidin-1-yl)-3,3-dimethyl-1-oxobutan-2-yl)-N7-(2-((4-(3-(2-(2-(1-(methylsulfonyl)-1H-pyrrole-3-carboxamido)acetamido)thiazol-4-yl)phenyl)pyridin-2-yl)oxy)ethyl)heptanediamide]
> 10 | C (‘C’ = Maximum degradation <50%) | > 10 | < 50 | Cc1ncsc1-c1ccc(CNC(=O)[C@@H]2C[C@@H](O)CN2C(=O)[C@@H](NC(=O)CCCCCNC(=O)CN(C)c2cc(-c3cccc(-c4csc(NC(=O)CNC(=O)c5ccn(S(C)(=O)=O)c5)n4)c3)ccn2)C(C)(C)C)cc1 [Compound 87]

SMILES | DC50 (HiBit-BRM fusion protein) [µM] | BRM HiBit Degradation Maximum measured (HiBit-BRM fusion protein) | DC50 [1] [µM] | Dmax [1] [%]
Cc1ncsc1-c1ccc(CNC(=O)[C@@H]2C[C@@H](O)CN2C(=O)[C@@H](NC(=O)CCCCCC(=O)N2CCN(c3cc(-c4cccc(-c5csc(NC(=O)CNC(=O)c6ccn(S(C)(=O)=O)c6)n5)c4)ccn3)CC2)C(C)(C)C)cc1 [Compound 86, N-(2-((4-(3-(2-(4-(7-(((S)-1-((2S,4R)-4-hydroxy-2-((4-(4-methylthiazol-5-yl)benzyl)carbamoyl)pyrrolidin-1-yl)-3,3-dimethyl-1-oxobutan-2-yl)amino)-7-oxoheptanoyl)piperazin-1-yl)pyridin-4-yl)phenyl)thiazol-2-yl)amino)-2-oxoethyl)-1-(methylsulfonyl)-1H-pyrrole-3-carboxamide] | 0.1 to 1 | B (‘B’ = Maximum degradation ≥50% and ≤75%) | 0.1 to 1 | 50 to 75
